Data as given in publication PMC3735612, “Functional Identification of Close Proximity Amino Acid Side Chains within the Transmembrane-Spanning Helixes of the P2X2 Receptor” (PLoS ONE, 2013).
Where a chain is given by its changes, count along the chain named.

Experiments:
Assay in all cases: perforated-patch whole-cell voltage clamp, peak ATP-gated current, Hill fit
Type in all cases: cell-based
[1] = biological target: T1, rP2X2R (rP2X2R-WT; rP2X2R-T for the C348T background) (Rattus norvegicus, UniProt P49653, C348T/F44C)
T1 construct: gene P2rx2; full-length, C-terminal FLAG tag (DYKDDDDK), transiently expressed in HEK293 cells with EGFP; homotrimer; monomer about 62 kDa on SDS-PAGE; all point mutants made on the C348T (rP2X2R-T) background
T1 sequence (P49653 1-472 F44C/C348T): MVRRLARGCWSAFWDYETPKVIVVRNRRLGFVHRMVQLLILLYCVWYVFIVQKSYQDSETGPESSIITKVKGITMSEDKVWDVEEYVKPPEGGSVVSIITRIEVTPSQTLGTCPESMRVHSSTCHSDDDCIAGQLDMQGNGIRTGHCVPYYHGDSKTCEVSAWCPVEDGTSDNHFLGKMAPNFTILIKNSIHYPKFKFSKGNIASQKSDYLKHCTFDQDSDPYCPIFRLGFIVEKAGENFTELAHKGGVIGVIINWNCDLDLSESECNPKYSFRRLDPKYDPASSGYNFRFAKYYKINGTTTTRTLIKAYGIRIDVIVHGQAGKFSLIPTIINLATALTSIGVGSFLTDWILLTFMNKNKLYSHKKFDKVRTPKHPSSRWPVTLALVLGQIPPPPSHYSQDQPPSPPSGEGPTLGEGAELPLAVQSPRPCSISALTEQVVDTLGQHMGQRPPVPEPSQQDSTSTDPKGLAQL
Source text: (§1) perforated-patch whole-cell voltage clamp, peak ATP-gated current, Hill fit on rP2X2R (rP2X2R-WT; rP2X2R-T for the C348T background)

[2] = biological target: T2, rP2X2R (rP2X2R-WT; rP2X2R-T for the C348T background) (Rattus norvegicus, UniProt P49653, C348T/H33A)
T2 construct: gene P2rx2; full-length, C-terminal FLAG tag (DYKDDDDK), transiently expressed in HEK293 cells with EGFP; homotrimer; monomer about 62 kDa on SDS-PAGE; all point mutants made on the C348T (rP2X2R-T) background
T2 sequence (P49653 1-472 H33A/C348T): T1 sequence (P49653 1-472 F44C/C348T) with H33A, C44F
Source text: as §1

[3] = biological target: T3, rP2X2R (rP2X2R-WT; rP2X2R-T for the C348T background) (Rattus norvegicus, UniProt P49653, C348T/H33A/S345A)
T3 construct: gene P2rx2; full-length, C-terminal FLAG tag (DYKDDDDK), transiently expressed in HEK293 cells with EGFP; homotrimer; monomer about 62 kDa on SDS-PAGE; all point mutants made on the C348T (rP2X2R-T) background
T3 sequence (P49653 1-472 H33A/S345A/C348T): T1 sequence (P49653 1-472 F44C/C348T) with H33A, C44F, S345A
Source text: as §1

[4] = biological target: T4, rP2X2R (rP2X2R-WT; rP2X2R-T for the C348T background) (Rattus norvegicus, UniProt P49653, C348T/H33C)
T4 construct: gene P2rx2; full-length, C-terminal FLAG tag (DYKDDDDK), transiently expressed in HEK293 cells with EGFP; homotrimer; monomer about 62 kDa on SDS-PAGE; all point mutants made on the C348T (rP2X2R-T) background
T4 sequence (P49653 1-472 H33C/C348T): T1 sequence (P49653 1-472 F44C/C348T) with H33C, C44F
Source text: as §1

[5] = biological target: T5, rP2X2R (rP2X2R-WT; rP2X2R-T for the C348T background) (Rattus norvegicus, UniProt P49653, C348T/H33C/S345C)
T5 construct: gene P2rx2; full-length, C-terminal FLAG tag (DYKDDDDK), transiently expressed in HEK293 cells with EGFP; homotrimer; monomer about 62 kDa on SDS-PAGE; all point mutants made on the C348T (rP2X2R-T) background
T5 sequence (P49653 1-472 H33C/S345C/C348T): T1 sequence (P49653 1-472 F44C/C348T) with H33C, C44F, S345C
Source text: as §1

[6] = biological target: T6, rP2X2R (rP2X2R-WT; rP2X2R-T for the C348T background) (Rattus norvegicus, UniProt P49653, C348T/I328A)
T6 construct: gene P2rx2; full-length, C-terminal FLAG tag (DYKDDDDK), transiently expressed in HEK293 cells with EGFP; homotrimer; monomer about 62 kDa on SDS-PAGE; all point mutants made on the C348T (rP2X2R-T) background
T6 sequence (P49653 1-472 I328A/C348T): T1 sequence (P49653 1-472 F44C/C348T) with C44F, I328A
Source text: as §1

[7] = biological target: T7, rP2X2R (rP2X2R-WT; rP2X2R-T for the C348T background) (Rattus norvegicus, UniProt P49653, C348T/I328C/V48C)
T7 construct: gene P2rx2; full-length, C-terminal FLAG tag (DYKDDDDK), transiently expressed in HEK293 cells with EGFP; homotrimer; monomer about 62 kDa on SDS-PAGE; all point mutants made on the C348T (rP2X2R-T) background
T7 sequence (P49653 1-472 V48C/I328C/C348T): T1 sequence (P49653 1-472 F44C/C348T) with C44F, V48C, I328C
Source text: as §1

[8] = biological target: T8, rP2X2R (rP2X2R-WT; rP2X2R-T for the C348T background) (Rattus norvegicus, UniProt P49653, C348T/S345A)
T8 construct: gene P2rx2; full-length, C-terminal FLAG tag (DYKDDDDK), transiently expressed in HEK293 cells with EGFP; homotrimer; monomer about 62 kDa on SDS-PAGE; all point mutants made on the C348T (rP2X2R-T) background
T8 sequence (P49653 1-472 S345A/C348T): T1 sequence (P49653 1-472 F44C/C348T) with C44F, S345A
Source text: as §1

[9] = biological target: T9, rP2X2R (rP2X2R-WT; rP2X2R-T for the C348T background) (Rattus norvegicus, UniProt P49653, C348T/S345C)
T9 construct: gene P2rx2; full-length, C-terminal FLAG tag (DYKDDDDK), transiently expressed in HEK293 cells with EGFP; homotrimer; monomer about 62 kDa on SDS-PAGE; all point mutants made on the C348T (rP2X2R-T) background
T9 sequence (P49653 1-472 S345C/C348T): T1 sequence (P49653 1-472 F44C/C348T) with C44F, S345C
Source text: as §1

EC50 [1]: 0.81 ± 0.1 µM
EC50 [2]: 4.2 ± 0.6 µM
EC50 [3]: 35.7 ± 0.5 µM
EC50 [4]: 2.3 ± 0.5 µM
EC50 [5]: 7.3 ± 1.1 µM
EC50 [6]: 0.4 ± 0.1 µM
EC50 [7]: 17.8 ± 2 µM
EC50 [8]: 12.1 ± 0.7 µM
EC50 [9]: 6.3 ± 0.9 µM
Structure (SMILES): Nc1ncnc2c1ncn2[C@@H]1O[C@H](COP(=O)(O)OP(=O)(O)OP(=O)(O)O)[C@@H](O)[C@H]1O [ATP]
